The values that follow come from publication PMC4503722, “Novel Phenotypic Outcomes Identified for a Public Collection of Approved Drugs from a Publicly Accessible Panel of Assays” (PLoS ONE, 2015).

One assay deals with INS-1E cells. The assay is described as follows: cells. It counts as cell-based, rat.
Another assay has as its system HT-29. Briefly: cells. It counts as cell-based. The conditions noted are these: Homo sapiens, HT-29, read-out: Basal_Viability ATP HT-29.
Assay [1] relates to endothelial tube formation in co-cultures of ECFCs and ADSCs treated with VEGF. The assay is described as follows: cells. It counts as cell-based, human.
The next assay relates to DLD-1. The assay is described as follows: cells. It counts as cell-based.
For another assay, the system named is SW480. Briefly: cells. It counts as cell-based.
For another assay, the system named is HeLa cells. Briefly: cells. It counts as cell-based. The conditions noted are these: for EC50: read-out: CellCycle G2/M.
Another assay concerns NCI-H716 cells. Briefly: cells. It counts as cell-based, Human.
The target of the next assay is T1, hGSK3b (Homo sapiens, UniProt P49841).
T1 construct: purchased Cerep (LANCE kinase assay platform, contract assay)
T1 sequence (P49841 whole entry): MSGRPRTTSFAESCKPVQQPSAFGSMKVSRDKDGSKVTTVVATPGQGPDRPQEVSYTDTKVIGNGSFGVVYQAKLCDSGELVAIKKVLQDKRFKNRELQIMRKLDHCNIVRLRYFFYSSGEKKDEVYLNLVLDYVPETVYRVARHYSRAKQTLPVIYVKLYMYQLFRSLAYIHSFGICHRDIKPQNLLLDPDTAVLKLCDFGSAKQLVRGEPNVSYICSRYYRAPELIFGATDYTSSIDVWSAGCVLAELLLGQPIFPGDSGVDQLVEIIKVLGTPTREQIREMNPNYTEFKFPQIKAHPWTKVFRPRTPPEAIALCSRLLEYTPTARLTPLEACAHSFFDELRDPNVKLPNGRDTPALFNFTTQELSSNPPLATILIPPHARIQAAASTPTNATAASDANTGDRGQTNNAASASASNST
The assay is described as follows: Cerep LANCE kinase assay hGSK3b (S1 assay 34). Format: biochemical. Conditions: read-out: GSK3b. (Time-resolved FRET reads energy transfer from a long-lived donor to a nearby acceptor.)

The target in a further assay is T2, hp70S6K1 (RPS6KB1) (Homo sapiens, UniProt P23443).
T2 construct: purchased Cerep (LANCE kinase assay platform, contract assay)
T2 sequence (P23443 whole entry): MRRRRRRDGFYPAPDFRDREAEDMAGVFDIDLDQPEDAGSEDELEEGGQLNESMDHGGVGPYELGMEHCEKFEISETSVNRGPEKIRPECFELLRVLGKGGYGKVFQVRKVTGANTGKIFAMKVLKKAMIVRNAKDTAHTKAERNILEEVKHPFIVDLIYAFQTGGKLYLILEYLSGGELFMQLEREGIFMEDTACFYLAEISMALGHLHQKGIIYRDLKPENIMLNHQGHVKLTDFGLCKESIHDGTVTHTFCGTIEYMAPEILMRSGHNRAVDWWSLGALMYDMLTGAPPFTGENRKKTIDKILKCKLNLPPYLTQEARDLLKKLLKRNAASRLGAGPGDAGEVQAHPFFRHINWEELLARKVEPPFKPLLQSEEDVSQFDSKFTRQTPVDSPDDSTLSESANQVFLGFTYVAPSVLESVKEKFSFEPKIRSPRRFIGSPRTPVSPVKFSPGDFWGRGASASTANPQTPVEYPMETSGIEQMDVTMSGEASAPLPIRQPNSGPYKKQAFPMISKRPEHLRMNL
The assay is described as follows: Cerep LANCE kinase assay hp70S6K1 (S1 assay 31). It counts as biochemical. The conditions noted are these: read-out: p70S6K1.

Another assay concerns the target T3, hJAK2 (Homo sapiens, UniProt O60674).
T3 construct: purchased Cerep (LANCE kinase assay platform, contract assay)
Briefly: Cerep LANCE kinase assay hJAK2 (S1 assay 33). The conditions noted are these: read-out: JAK2. Format: biochemical.

In the next assay the test system is HCT116. The assay is described as follows: cells. Format: cell-based.
The target in a further assay is T4, hFLT3 (Homo sapiens, UniProt P36888).
T4 construct: purchased Cerep (LANCE kinase assay platform, contract assay)
T4 sequence (P36888 27-993): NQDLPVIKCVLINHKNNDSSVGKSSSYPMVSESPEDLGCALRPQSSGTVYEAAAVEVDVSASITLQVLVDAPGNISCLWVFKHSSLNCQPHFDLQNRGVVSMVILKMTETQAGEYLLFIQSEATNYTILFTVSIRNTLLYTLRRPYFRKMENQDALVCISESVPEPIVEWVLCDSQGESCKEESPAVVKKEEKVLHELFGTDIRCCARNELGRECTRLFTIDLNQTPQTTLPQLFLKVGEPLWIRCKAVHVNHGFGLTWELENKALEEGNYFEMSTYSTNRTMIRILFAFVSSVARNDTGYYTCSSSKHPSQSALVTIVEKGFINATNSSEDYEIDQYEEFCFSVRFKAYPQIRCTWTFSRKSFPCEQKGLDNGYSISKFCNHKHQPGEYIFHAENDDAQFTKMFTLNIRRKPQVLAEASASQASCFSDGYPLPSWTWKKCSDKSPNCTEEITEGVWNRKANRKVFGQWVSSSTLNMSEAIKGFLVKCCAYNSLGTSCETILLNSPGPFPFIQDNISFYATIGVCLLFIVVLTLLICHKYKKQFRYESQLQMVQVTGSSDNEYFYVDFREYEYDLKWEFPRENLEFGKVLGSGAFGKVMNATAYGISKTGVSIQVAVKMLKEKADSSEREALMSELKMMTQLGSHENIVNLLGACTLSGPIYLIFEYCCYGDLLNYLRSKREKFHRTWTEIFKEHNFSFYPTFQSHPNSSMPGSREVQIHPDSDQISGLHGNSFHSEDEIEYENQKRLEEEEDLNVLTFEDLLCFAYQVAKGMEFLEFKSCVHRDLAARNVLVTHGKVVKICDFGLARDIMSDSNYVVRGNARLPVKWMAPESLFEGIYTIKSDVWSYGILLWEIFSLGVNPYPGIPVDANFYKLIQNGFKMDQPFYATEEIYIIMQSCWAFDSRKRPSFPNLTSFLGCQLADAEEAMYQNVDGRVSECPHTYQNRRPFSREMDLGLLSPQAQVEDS
The assay is described as follows: Cerep LANCE kinase assay hFLT3 (S1 assay 35). It counts as biochemical. Conditions: read-out: FLT3.

In assay [2] the test system is nuclear β-catenin in C2C12 cells. Briefly: cells. It counts as cell-based.
In the next assay the test system is RKO. Briefly: cells. Conditions: Homo sapiens, RKO, read-out: Basal_Viability ATP RKO. Format: cell-based.
Another assay concerns the target T5, hKDR (Homo sapiens, UniProt P35968).
T5 construct: purchased Cerep (LANCE kinase assay platform, contract assay)
Briefly: Cerep LANCE kinase assay hKDR (S1 assay 32). Format: biochemical. The conditions noted are these: read-out: KDR.

The subject of assay [3] is HCT116 cells treated with a GSK3β inhibitor. Briefly: cells. It counts as cell-based. The conditions noted are these: Homo sapiens.
The subject of another assay is Colo320. Briefly: cells. Format: cell-based. Conditions: Homo sapiens, COLO 320, read-out: Basal_Viability ATP Colo 320.
[4] abbreviates: Rattus norvegicus, INS-1E, read-out: Insulin Secretion.
Setting [5] is: Homo sapiens, read-out: Anti-Angiogenesis.
[6] abbreviates: Homo sapiens, DLD-1, read-out: Basal_Viability ATP DLD-1.
[7] abbreviates: Homo sapiens, SW480, read-out: Basal_Viability ATP SW480.
[8] abbreviates: Homo sapiens, NCI-H716, read-out: GLP 1 Secretion.
The mark [9] stands for this setting: Homo sapiens, HCT-116, read-out: Basal_Viability ATP HCT116.
The mark [10] stands for this setting: Mus musculus, C2C12, read-out: Wnt Pathway.
The mark [11] stands for this setting: HCT-116, read-out: GSK3b inh pretreated_Viability ATP HCT116.

Where two headings read alike, the source gives them in different places.

T3 sequence (O60674 whole entry): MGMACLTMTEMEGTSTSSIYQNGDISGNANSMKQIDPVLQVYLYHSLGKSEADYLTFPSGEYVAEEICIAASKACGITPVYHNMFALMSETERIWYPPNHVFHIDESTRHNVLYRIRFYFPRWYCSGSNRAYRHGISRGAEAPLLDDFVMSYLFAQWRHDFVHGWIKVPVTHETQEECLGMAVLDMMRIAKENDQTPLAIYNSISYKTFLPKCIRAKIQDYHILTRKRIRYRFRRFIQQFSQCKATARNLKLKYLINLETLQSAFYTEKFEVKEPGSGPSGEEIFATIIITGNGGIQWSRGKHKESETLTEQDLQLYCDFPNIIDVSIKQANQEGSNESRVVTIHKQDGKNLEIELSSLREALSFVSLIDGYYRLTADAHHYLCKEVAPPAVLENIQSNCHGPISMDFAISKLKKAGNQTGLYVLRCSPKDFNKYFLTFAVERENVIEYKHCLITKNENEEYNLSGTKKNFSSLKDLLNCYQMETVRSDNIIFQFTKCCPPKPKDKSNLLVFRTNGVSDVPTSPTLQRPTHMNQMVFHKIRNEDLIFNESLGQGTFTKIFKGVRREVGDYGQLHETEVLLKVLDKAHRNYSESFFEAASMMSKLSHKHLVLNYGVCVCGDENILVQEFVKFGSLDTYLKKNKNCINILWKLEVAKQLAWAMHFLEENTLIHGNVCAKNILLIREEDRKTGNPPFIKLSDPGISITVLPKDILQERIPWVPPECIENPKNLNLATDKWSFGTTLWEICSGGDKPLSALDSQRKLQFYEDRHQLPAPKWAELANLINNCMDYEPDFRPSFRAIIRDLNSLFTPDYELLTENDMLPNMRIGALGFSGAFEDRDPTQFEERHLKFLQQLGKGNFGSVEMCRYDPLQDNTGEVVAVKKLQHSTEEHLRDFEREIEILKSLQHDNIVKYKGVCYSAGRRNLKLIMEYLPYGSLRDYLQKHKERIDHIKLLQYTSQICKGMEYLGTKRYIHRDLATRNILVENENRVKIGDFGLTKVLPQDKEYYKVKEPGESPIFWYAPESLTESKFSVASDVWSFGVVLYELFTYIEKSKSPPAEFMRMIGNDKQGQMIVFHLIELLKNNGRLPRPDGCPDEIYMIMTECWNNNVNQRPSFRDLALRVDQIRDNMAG
T5 sequence (P35968 20-1356): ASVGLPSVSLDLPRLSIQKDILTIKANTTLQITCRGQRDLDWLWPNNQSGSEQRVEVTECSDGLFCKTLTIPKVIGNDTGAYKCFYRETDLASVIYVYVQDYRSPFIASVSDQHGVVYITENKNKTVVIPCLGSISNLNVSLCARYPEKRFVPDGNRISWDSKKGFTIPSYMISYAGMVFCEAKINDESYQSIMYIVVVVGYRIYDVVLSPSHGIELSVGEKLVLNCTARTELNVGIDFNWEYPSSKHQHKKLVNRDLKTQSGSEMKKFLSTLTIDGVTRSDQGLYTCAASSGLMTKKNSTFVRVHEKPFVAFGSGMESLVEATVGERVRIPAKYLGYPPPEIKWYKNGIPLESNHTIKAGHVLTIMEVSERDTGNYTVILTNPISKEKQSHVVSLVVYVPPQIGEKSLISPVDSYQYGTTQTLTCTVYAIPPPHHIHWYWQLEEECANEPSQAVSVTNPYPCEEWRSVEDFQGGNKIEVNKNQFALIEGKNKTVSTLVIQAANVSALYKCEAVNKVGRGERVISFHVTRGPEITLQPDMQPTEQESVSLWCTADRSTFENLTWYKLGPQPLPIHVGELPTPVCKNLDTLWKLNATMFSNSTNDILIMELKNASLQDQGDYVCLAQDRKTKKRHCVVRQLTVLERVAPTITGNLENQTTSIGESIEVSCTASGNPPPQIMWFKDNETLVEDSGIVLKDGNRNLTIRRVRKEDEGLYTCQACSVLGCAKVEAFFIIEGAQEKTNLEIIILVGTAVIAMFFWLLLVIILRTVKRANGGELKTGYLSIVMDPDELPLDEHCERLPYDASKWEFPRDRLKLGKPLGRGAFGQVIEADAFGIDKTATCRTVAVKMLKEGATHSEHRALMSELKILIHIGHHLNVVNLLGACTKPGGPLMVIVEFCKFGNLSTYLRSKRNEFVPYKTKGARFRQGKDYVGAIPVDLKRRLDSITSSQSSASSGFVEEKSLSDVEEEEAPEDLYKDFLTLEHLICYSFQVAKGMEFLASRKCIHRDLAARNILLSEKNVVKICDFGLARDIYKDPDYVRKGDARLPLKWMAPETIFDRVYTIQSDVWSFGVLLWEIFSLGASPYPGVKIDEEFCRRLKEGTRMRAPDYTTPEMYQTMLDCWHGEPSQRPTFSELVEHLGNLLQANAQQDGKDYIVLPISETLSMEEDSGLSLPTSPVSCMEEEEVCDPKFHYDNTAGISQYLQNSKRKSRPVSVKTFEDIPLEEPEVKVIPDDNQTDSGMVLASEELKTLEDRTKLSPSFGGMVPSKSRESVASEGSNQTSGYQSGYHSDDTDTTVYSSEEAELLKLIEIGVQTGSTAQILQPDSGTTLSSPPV

As to `CC(C)(C)[C@H]1CC[C@H](CC2=C(O)C(=O)c3ccccc3C2=O)CC1` [Buparvaquone], the EC50 was above 10000 nM with INS-1E cells (setting [4]); above 10000 nM in the assay with HeLa cells (Homo sapiens, HeLa); above 10000 nM in the assay with NCI-H716 cells (setting [8]); above 10000 nM in [2] (setting [10]). The IC50 in the assay with HT-29 is 3390 nM; in assay [1] (setting [5]), 1960 nM; in the assay on DLD-1 (setting [6]), 218 nM; in the assay with SW480 (setting [7]), 205 nM; at hGSK3b, above 20000 nM; on hp70S6K1 (RPS6KB1) it was above 20000 nM. The IC50 on hJAK2 is above 20000 nM; in the assay with HCT116 (setting [9]) it was 227 nM; at hFLT3, above 20000 nM; with RKO, 133 nM; at hKDR, above 20000 nM; in [3] (setting [11]), 66.7 nM. In addition, the IC50 in the assay with Colo320 turned out to be 255 nM.

Turning to `COC(=O)Nc1nc2ccc([S+]([O-])c3ccccc3)cc2[nH]1` (centres unmarked) [Oxfendazole], the EC50 was above 10000 nM in the assay with INS-1E cells (setting [4]); 331 nM in the assay with HeLa cells (Homo sapiens, HeLa); above 10000 nM in the assay on NCI-H716 cells (setting [8]); 468 nM in assay [2] (setting [10]). Besides, the IC50 in the assay on HT-29 was above 20000 nM; in assay [1] (setting [5]) it was 288 nM; with DLD-1 (setting [6]), above 20000 nM; in the assay on SW480 (setting [7]) it was above 20000 nM; at hGSK3b (kinase assay), above 20000 nM; on hp70S6K1 (RPS6KB1) (kinase assay), above 20000 nM. Moreover, the IC50 was above 20000 nM on hJAK2 (kinase assay); 1 nM with HCT116 (setting [9]); above 20000 nM at hFLT3 (kinase assay); 1 nM in the assay on RKO; above 20000 nM at hKDR (kinase assay); 1 nM in assay [3] (setting [11]).

Take `CC[C@]1(O)C[C@@H]2CN(CCc3c([nH]c4ccccc34)[C@@](C(=O)OC)(c3cc4c(cc3OC)N(C)[C@H]3[C@@](O)(C(=O)OC)[C@H](OC(C)=O)[C@]5(CC)C=CCN6CC[C@]43[C@@H]65)C2)C1` [Vinblastine]: the EC50 is above 10000 nM in the assay with INS-1E cells (setting [4]); 3.2 nM with HeLa cells (Homo sapiens, HeLa); 4.83 nM in the assay with HeLa cells; above 10000 nM in the assay on NCI-H716 cells (setting [8]); 5.8 nM in [2] (setting [10]); 3.5 nM in assay [2] (read-out: Wnt Pathway). For the same compound, the IC50 was 1 nM in the assay on HT-29; 2.3 nM in assay [1] (setting [5]); 2.6 nM in assay [1] (read-out: Anti-Angiogenesis); above 20000 nM at hGSK3b; above 20000 nM on hp70S6K1 (RPS6KB1); above 20000 nM on hJAK2. Also, the IC50 on hFLT3 is above 20000 nM; in the assay with RKO it was 1 nM; on hKDR, above 20000 nM; in assay [3] (setting [11]), 1 nM; with Colo320, 1 nM.

Regarding `CC[C@@H]([C@H](C)O)n1ncn(-c2ccc(N3CCN(c4ccc(OC[C@@H]5CO[C@@](Cn6cncn6)(c6ccc(F)cc6F)C5)cc4)CC3)cc2)c1=O` [posaconazole], the EC50 in the assay on INS-1E cells (setting [4]) is above 10000 nM; with HeLa cells (Homo sapiens, HeLa), above 10000 nM; with NCI-H716 cells (setting [8]), above 10000 nM; in assay [2] (setting [10]), 1630 nM. Further, the IC50 in [1] (setting [5]) is 6460 nM; in the assay with DLD-1 (setting [6]), above 20000 nM; in the assay with SW480 (setting [7]) it was 5810 nM; on hGSK3b, above 20000 nM; on hp70S6K1 (RPS6KB1), above 20000 nM; on hJAK2, above 20000 nM. Moreover, the IC50 was 6240 nM in the assay with HCT116 (setting [9]), above 20000 nM on hFLT3, above 20000 nM on hKDR and above 20000 nM in assay [3] (setting [11]).

On to `CCc1nc(N)nc(N)c1-c1ccc(Cl)cc1` [pyrimethamine, reference compound], for which the EC50 in the assay on INS-1E cells (Rattus norvegicus, INS-1E, read-out: Ins. sec. EC50) was above 10000 nM; with HeLa cells (Homo sapiens, HeLa) it was above 10000 nM; in the assay on NCI-H716 cells (Homo sapiens, NCI-H716, read-out: GLP1 sec. EC50), above 10000 nM; in assay [2] (setting [10]), 67.7 nM; in [2] (Mus musculus, C2C12, read-out: Wnt pot. EC50) it was 68 nM. Besides, the IC50 in assay [1] (Homo sapiens, read-out: Anti-Angio IC50) was above 10000 nM; in the assay with DLD-1 (Homo sapiens, DLD-1, 72 h, read-out: DLD-1 viab. IC50), above 20000 nM; in the assay on SW480 (Homo sapiens, SW480, 72 h, read-out: SW480 viab. IC50), 12500 nM; with SW480 (setting [7]), 12500 nM; on hGSK3b (kinase assay), above 20000 nM; at hp70S6K1 (RPS6KB1) (kinase assay) it was above 20000 nM. The IC50 on hJAK2 (kinase assay) is above 20000 nM; with HCT116 (Homo sapiens, HCT-116, 72 h, read-out: HCT-116 viab. IC50) it was 18200 nM; in the assay on HCT116 (setting [9]), 18200 nM; on hFLT3 (kinase assay) it was above 20000 nM; at hKDR (kinase assay) it was above 20000 nM; in assay [3] (HCT-116, 72 h, read-out: HCT-116 (GSK3β) viab. IC50) it was above 20000 nM.

Turning to `C=C(C)[C@H]1Cc2c(ccc3c2O[C@@H]2COc4cc(OC)c(OC)cc4[C@@H]2C3=O)O1` [rotenone, reference compound], the EC50 in the assay on INS-1E cells (Rattus norvegicus, INS-1E; read-out: Ins. sec. EC50) is above 10000 nM; with HeLa cells (Homo sapiens, IC50 / EC50, HeLa), 311 nM; with NCI-H716 cells (Homo sapiens, NCI-H716; read-out: GLP1 sec. EC50) it was above 10000 nM; in [2] (Mus musculus, C2C12; read-out: Wnt pot. EC50), 250 nM; in assay [2] (Mus musculus; IC50 / EC50; C2C12 beta-catenin translocation; read-out: Wnt Pathway), 254 nM. The IC50 in assay [1] (Homo sapiens, IC50 / EC50; endothelial tube area, ADSC/ECFC co-culture; read-out: Anti-Angiogenesis) is 25.7 nM; in assay [1] (Homo sapiens; read-out: Anti-Angio IC50) it was 26 nM; in the assay with DLD-1 (Homo sapiens, DLD-1; Table 2; 72 h, Cell TiterGlo, non-adherent; 20 coded; read-out: DLD-1 viab. IC50), 350 nM; with DLD-1 (Homo sapiens, DLD-1; read-out: Basal_Viability ATP DLD-1), 350 nM; in the assay with SW480 (Homo sapiens, SW480; Table 2; 72 h, Cell TiterGlo, non-adherent; 20 coded; read-out: SW480 viab. IC50), 160 nM; in the assay on SW480 (Homo sapiens, SW480; read-out: Basal_Viability ATP SW480), 162 nM. Also, the IC50 on hGSK3b was above 20000 nM; on hp70S6K1 (RPS6KB1), above 20000 nM; at hJAK2 it was above 20000 nM; with HCT116 (Homo sapiens, HCT-116, read-out: HCT-116 viab. IC50; Table 2; basal; 72 h, Cell TiterGlo, non-adherent; 20 coded), 1200 nM; in the assay with HCT116 (Homo sapiens, HCT-116; read-out: Basal_Viability ATP HCT116), 1180 nM; on hFLT3, above 20000 nM. For the same compound, the IC50 on hKDR was above 20000 nM; in [3] (HCT-116, read-out: HCT-116 (GSK3β) viab. IC50, Table 2, GSK3β inhibitor LY2090314 20 nM, 72 h, Cell TiterGlo, 20 coded), 67 nM; in assay [3] (HCT-116, GSK3b inhibitor pretreated, read-out: GSK3b inh pretreated_Viability ATP HCT116), 66.7 nM. Also, in the assay on HeLa cells, the “G2/M IC50 / EC50” value came out at 310 nM.

For the compound `CC[C@]1(O)C[C@H]2CN(CCc3c([nH]c4ccccc34)[C@@](C(=O)OC)(c3cc4c(cc3OC)N(C=O)[C@H]3[C@@](O)(C(=O)OC)[C@H](OC(C)=O)[C@]5(CC)C=CCN6CC[C@]43[C@@H]65)C2)C1` [vincristine], the EC50 in the assay with INS-1E cells (setting [4]) is above 10000 nM; in the assay with HeLa cells (Homo sapiens, HeLa) it was 5.9 nM; in the assay with NCI-H716 cells (setting [8]) it was above 10000 nM; in assay [2] (setting [10]), 4 nM. Besides, the IC50 in [1] (setting [5]) is 6.5 nM; in the assay on DLD-1 (setting [6]), 786 nM; in the assay on SW480 (setting [7]), 3080 nM; on hGSK3b it was above 20000 nM; at hp70S6K1 (RPS6KB1) it was above 20000 nM; at hJAK2, above 20000 nM. For the same compound, the IC50 was 126 nM in the assay with HCT116 (setting [9]), above 20000 nM on hFLT3, above 20000 nM at hKDR and 66.7 nM in assay [3] (setting [11]).
